{"source": "patent US5506354A", "about": "“Imidazolylpiperazinyl steroids” (The Upjohn Company, priority 1992, dated 1996)", "key": {"[1]": {"test_system": "serum and arterial cholesterol in quail fed an atherogenic diet", "experiment": "Antiatherosclerosis Screen in Susceptible to Experimental Atherosclerosis (SEA) Japanese Quail", "assay_type": "in vivo", "experimental": "While not necessary, some minor modifications for extraction of cholesterol from the artery have been made. Time are as follows: frozen arteries are homogenized in hexane/isopropanol (3/2) and the volume adjusted with Triton 100 solution (1.5% in hexane/isopropanol) to 7 ml. After standing 12 hr at 20°-25°, the supernatant, obtained by low speed centrifugation is evaporated until dry and thru the residue is suspended in 0.5 ml of 5% Triton 100 in isopropanol. This suspension is incubated for 10 min at 45° to dissolve the material. This solution as well as the diluted serum samples are analyzed for cholesterol by standard clinical chemistry analyzer methods. According to the above procedure compounds which decrease serum or arterial cholesterol >30% are considered to be \"active\"."}, "[2]": {"test_system": "AcylCoA:Cholesterol Acyltransferase (ACAT)", "experiment": "AcylCoA:Cholesterol Acyltransferase (ACAT) Inhibition Assay", "assay_type": "cell-based", "parameters": "key to inhibition of ACAT (activity in words): compounds which inhibit ACAT activity equal to, or greater than, that of chloropromazine are considered \"active\"", "conditions": "for inhibition of ACAT (activity in words): preferred Fu5AH cells, compared with chloropromazine", "text": "ACAT esterifies arterial cholesterol which is a key reaction in the development of atherosclerosis. The procedure of Bell, Can. […] In the ACAT assay it is preferred to use Fu5AH cells, see Lipids 9, 526 (1974). According to this procedure, compounds which inhibit ACAT activity equal to, or greater than, that of chloropromazine are considered \"active\"."}, "arachidonic acid": {"test_system": "arachidonic acid", "experiment": "Arachidonic Acid Antagonism Assay (AAAA), LD50 of sodium arachidonate", "assay_type": "in vivo, Charles River male CF-1 mice", "conditions": "100 mg/kg; test compound IV", "in_short": "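Male CF-1 mice (18–22 g) received test compound IV in 1.0% Tween-80/0.1% HCl. LD50 was derived by Spearman-Karber (log dose interval 0.05, N=6), and activity was defined as LD50 elevation outside the control's 95% confidence interval.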"}, "MDA formation": {"test_system": "MDA formation", "experiment": "Malonyldialdehyde (MDA) Formation Assay (rat brain synaptosomes)", "assay_type": "biochemical", "conditions": "10 min at 37°, pH 7.0; active = 50% or more at 200 μM or less", "experimental": "Since lipid peroxidation is involved in the pathophysiology of center nervous system trauma, compounds which inhibit MDA formation are useful in treating the conditions listed below.\nWhile not necessary to determine MDA formation, the above assays have been modified as follows: rat brain synaptosomes are prepared as described in the Example about the conjugated diene assay, except that the final wash of the synaptosomes and final suspension are in physiological (normal) saline in which the pH has been adjusted to 7.0. The synaptosomes are incubated for 10 min at 37° in physiological (normal) saline pH 7.0 (total volume=100 ul) containing; 10 ul synaptosomal suspension, 10% DMSO plus or minus drug, 150 uM Fe^+++ and 50 uM Fe++. The incubation is started by the rapid addition of iron to the otherwise complete reaction. The iron solutions are prepared fresh as ferric chloride and ferrous ammonium sulfate in argon-purged water. Following the 10 min incubation, the reaction is stopped by the addition of 500 ul ice-cold 12% trichloroacetic acid prepared in 0.5N hydrochloric acid. Water (300 ul) is then added along with 100 ul of freshly prepared thiobarbituric acid (3.3% in 0.5N sodium hydroxide) and 10 ul of 5 mM desferrioxamine. The sample is then heated in a boiling water bath for 20 minutes. The samples are cooled and centrifuged for 15 minutes at 1500×g and the absorbence of the supernatant fraction is read at 532 nm. The % inhibition of MDA formation is calculated by dividing the absorbance of sample containing drug by the absorbence of samples incubated without drug. Reaction blanks are samples incubated in the absence of iron. A compound that inhibits MDA formation by 50% or more at a concentration of 200 μM or less is considered \"active\"."}, "mucous secretion": {"test_system": "mucous secretion", "experiment": "Inhibition of mucous secretion assay of Johnson", "conditions": "induced mucous secretions", "text": "According to this procedure compounds which inhibit or block enhancement of induced mucous secretions when tested are considered to be \"active\"."}, "mouse head injury": {"test_system": "mouse head injury", "experiment": "in vivo mouse head injury procedure of Hall (1 hr neurological recovery, grip test)", "conditions": "statistically significant (p<0.05)"}}, "note": "Counter-ions that a name gives are not always drawn."}
{"compound": "C[C@]12CCC(=O)C=C1CC[C@@H]1C2=CC[C@@]2(C)[C@H]1CC[C@]2(O)C(=O)CN1CCN(c2ccccn2)CC1.Cl", "note": "[Example 3, 17α-Hydroxy-21-[4-(2-pyridinyl)-1-piperazinyl]pregna-4,9(11)-diene-3,20-dione hydrogen chloride salt]", "values": [{"measurement": "reduction of arterial cholesterol (in words)", "setting": "[1]; artery", "result": "demonstrates reduction of serum and arterial cholesterol"}, {"measurement": "reduction of serum cholesterol (in words)", "setting": "[1]; serum", "result": "demonstrates reduction of serum and arterial cholesterol"}, {"measurement": "inhibition of ACAT (activity in words)", "setting": "[2]", "result": "active"}]}
{"compound": "CCN(CC)c1nc(N2CCCCC2)cc(N2CCN(CC(=O)[C@@]3(O)CC[C@H]4[C@@H]5CCC6=CC(=O)CC[C@]6(C)C5=CC[C@@]43C)CC2)n1.Cl.O", "note": "[Example 17, 17α-Hydroxy-21-[4-[2-(diethylamino)-6-(1-piperidinyl)-4-pyrimidinyl]-1-piperazinyl]pregna-4,9(11)-diene-3,20-dione hydrochloride hydrate]", "values": [{"measurement": "% of Control LD50 100 mg/kg", "setting": "arachidonic acid", "result": 150, "unit": "%"}, {"measurement": "% Inhibition of ACAT", "setting": "[2]; 5 μg/ml", "result": 32.2, "unit": "%"}, {"measurement": "inhibition of ACAT (activity in words)", "setting": "[2]", "result": "active"}, {"measurement": "inhibition of MDA formation (activity in words)", "setting": "MDA formation", "result": "demonstrate such activity"}]}
{"compound": "CCN(CC)c1cc(N2CCN(CC(=O)[C@@]3(O)[C@H](C)C[C@H]4[C@@H]5CCC6=CC(=O)C=C[C@]6(C)C5=CC[C@@]43C)CC2)nc(N(CC)CC)n1.Cl.O", "note": "[Example 18, 21-[4-[2,6-Bis(diethylamino)-4-pyrimidinyl]-1-piperazinyl]-17α-hydroxy-16α-methylpregna-1,4,9(11)-triene-3,20-dione hydrochloride hydrate]", "values": [{"measurement": "inhibition of mucous secretion (activity in words)", "setting": "mucous secretion", "result": "demonstrate such activity"}, {"measurement": "inhibition of ACAT (activity in words)", "setting": "[2]", "result": "active"}]}
{"compound": "CCN(CC)c1cc(N2CCN(CC(=O)[C@H]3CC[C@H]4[C@@H]5CCC6=CC(=O)CC[C@]6(C)[C@H]5[C@H](O)C[C@]34C)CC2)nc(N(CC)CC)n1.Cl.Cl", "note": "[Example 69, 21-[4-[2,6-bis(diethylamino)-4-pyrimidinyl]-1-piperazinyl]-11α-hydroxypregn-4-ene-3,20-dione dihydrochloride]", "values": [{"measurement": "% Increase in 1 hr Post-Injury Grip Test Scores After 3 mg/kg", "setting": "mouse head injury", "result": 199.7, "unit": "%"}]}
{"compound": "CCN(CC)c1cc(N2CCN(CC(=O)[C@@]3(O)CC[C@H]4[C@@H]5CCC6=CC(=O)CC[C@]6(C)[C@H]5[C@H](O)C[C@@]43C)CC2)nc(N(CC)CC)n1.Cl.Cl", "note": "[Example 70, 21-[4-[2,6-bis(diethylamino)4-pyrimidinyl]-1-piperazinyl]-11α,17α-dihydroxypregn-4-ene-3,20-dione dihydrochloride]", "values": [{"measurement": "% Increase in 1 hr Post-Injury Grip Test Scores After 3 mg/kg", "setting": "mouse head injury", "result": 148.3, "unit": "%"}]}
{"compound": "CS(=O)(=O)O.C[C@@H]1C[C@H]2[C@@H]3CCC4=CC(=O)C=C[C@]4(C)C3=CC[C@]2(C)[C@H]1C(=O)CN1CCN(c2cc(N3CCCC3)nc(N3CCCC3)n2)CC1.O", "note": "[Example 109, 16α-Methyl-21-[4-[2,6-bis(1-pyrrolidinyl)-4-pyrimidinyl]-1-piperazinyl]-pregna-1,4,9(11)-triene-3,20-dione-monomethanesulfonate monohydrate]", "values": [{"measurement": "% Increase in 1 hr Post-Injury Grip Test Scores After 3 mg/kg", "setting": "mouse head injury", "result": 184.4, "unit": "%"}]}
{"compound": "CCNc1cccnc1N1CCN(CC(=O)[C@H]2[C@H](C)C[C@H]3[C@@H]4CCC5=CC(=O)C=C[C@]5(C)C4=CC[C@@]32C)CC1", "note": "[Example 127, 21-[4-[3-(Ethylamino)-2-pyridinyl]piperazinyl]-16α-methylpregna-1,4,9(11)-triene-3,20-dione hydrochloride]", "values": [{"measurement": "% Increase in 1 hr Post-Injury Grip Test Scores After 3 mg/kg", "setting": "mouse head injury", "result": 200.8, "unit": "%"}]}
